Test results reported in ChEMBL document CHEMBL3039007, “Structure-based identification of OATP1B1/3 inhibitors” (Mol Pharmacol, 2013).

Legend:
[1] = target: T1, Solute carrier organic anion transporter family member 1B1 (Homo sapiens, UniProt Q9Y6L6); conditions: chinese hamster, cho, 10 µM
T1 sequence (Q9Y6L6 whole entry): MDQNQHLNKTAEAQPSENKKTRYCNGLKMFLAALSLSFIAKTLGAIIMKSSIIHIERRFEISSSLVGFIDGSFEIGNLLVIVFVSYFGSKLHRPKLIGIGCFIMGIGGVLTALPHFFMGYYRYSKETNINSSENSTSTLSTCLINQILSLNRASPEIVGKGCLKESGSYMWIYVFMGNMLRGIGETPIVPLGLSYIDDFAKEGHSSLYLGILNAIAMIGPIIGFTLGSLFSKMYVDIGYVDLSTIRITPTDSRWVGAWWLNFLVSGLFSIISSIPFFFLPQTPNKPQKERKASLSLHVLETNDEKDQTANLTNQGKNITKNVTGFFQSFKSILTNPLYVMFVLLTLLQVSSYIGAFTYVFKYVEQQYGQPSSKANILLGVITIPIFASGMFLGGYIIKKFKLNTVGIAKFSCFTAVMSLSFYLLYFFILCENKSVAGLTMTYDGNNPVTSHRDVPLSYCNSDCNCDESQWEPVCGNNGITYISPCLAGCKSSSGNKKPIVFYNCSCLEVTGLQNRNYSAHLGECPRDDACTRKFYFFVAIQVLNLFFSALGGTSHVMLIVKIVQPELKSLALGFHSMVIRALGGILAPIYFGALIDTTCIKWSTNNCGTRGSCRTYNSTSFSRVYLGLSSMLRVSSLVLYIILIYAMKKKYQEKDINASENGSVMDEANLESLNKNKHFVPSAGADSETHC

[2] = target: T2, Solute carrier organic anion transporter family member 1B3 (Homo sapiens, UniProt Q9NPD5); conditions: chinese hamster, cho, 10 µM
T2 sequence (Q9NPD5 whole entry): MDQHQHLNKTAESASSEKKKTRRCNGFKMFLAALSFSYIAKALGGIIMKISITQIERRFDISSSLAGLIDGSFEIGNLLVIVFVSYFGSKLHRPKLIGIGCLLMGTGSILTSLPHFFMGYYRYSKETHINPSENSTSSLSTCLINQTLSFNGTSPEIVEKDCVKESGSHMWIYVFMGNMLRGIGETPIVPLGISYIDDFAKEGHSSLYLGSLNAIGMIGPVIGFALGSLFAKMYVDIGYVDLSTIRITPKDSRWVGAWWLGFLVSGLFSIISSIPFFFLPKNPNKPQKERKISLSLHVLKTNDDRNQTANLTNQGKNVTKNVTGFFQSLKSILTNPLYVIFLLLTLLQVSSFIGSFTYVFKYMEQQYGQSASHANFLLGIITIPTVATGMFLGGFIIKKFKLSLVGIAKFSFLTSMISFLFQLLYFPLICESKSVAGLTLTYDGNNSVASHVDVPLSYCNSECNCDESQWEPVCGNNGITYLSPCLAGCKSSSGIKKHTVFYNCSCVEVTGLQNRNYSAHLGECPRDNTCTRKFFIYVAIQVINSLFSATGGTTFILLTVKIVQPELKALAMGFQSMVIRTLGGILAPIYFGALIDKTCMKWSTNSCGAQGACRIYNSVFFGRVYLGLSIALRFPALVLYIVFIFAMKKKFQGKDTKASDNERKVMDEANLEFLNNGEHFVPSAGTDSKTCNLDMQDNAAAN

Compound	residual activity [1] [%]	residual activity [2] [%]
CN(C)c1ccc(O)c2c1C[C@H]1C[C@H]3[C@H](N(C)C)C(O)=C(C(N)=O)C(=O)[C@@]3(O)C(O)=C1C2=O.Cl [MINOCYCLINE HYDROCHLORIDE]	100.7	96.34
Nc1cc(N2CCCCC2)nc(N)[n+]1[O-] [MINOXIDIL]	93.9	92.39
Clc1ccc(C(c2ccccc2Cl)C(Cl)Cl)cc1 (stereo not drawn) [MITOTANE]	107.6	98.27
NC(=O)c1ncn([C@@H]2O[C@H](CO)[C@@H](O)[C@H]2O)c1O [MIZORIBINE]	113.4	100.4
NC(=O)C[S+]([O-])C(c1ccccc1)c1ccccc1 (stereo not drawn) [MODAFINIL]	113.7	95.61
CCOC(=O)[N-]c1cn(N2CCOCC2)n[o+]1 [MOLSIDOMINE]	70.9	97.14
C[C@@H]1C[C@H]2[C@@H]3CCC4=CC(=O)C=C[C@]4(C)[C@@]3(Cl)[C@@H](O)C[C@]2(C)[C@@]1(OC(=O)c1ccco1)C(=O)CCl [MOMETASONE FUROATE]	34.01	25.64
CC[C@@]1([C@H]2O[C@H]([C@H]3O[C@@](O)(CO)[C@H](C)C[C@@H]3C)C[C@H]2C)CC[C@H]([C@@]2(C)CC[C@]3(C[C@H](O)[C@@H](C)[C@@H]([C@H](C)[C@H](OC)[C@@H](C)C(=O)[O-])O3)O2)O1.[Na+] [MONENSIN SODIUM]	78.11	87
C[C@H]1C(=O)O[C@@H]2CCN3CC=C(COC(=O)[C@](C)(O)[C@]1(C)O)[C@H]23 [MONOCROTALINE]	100.7	94.85
Cc1ccsc1/C=C/C1=NCCCN1C.O=C(O)CC(O)(CC(=O)O)C(=O)O [MORANTEL CITRATE]	115.3	103.6
O=c1c(O)c(-c2ccc(O)cc2O)oc2cc(O)cc(O)c12 [MORIN]	24.17	45.37
CO[C@@]1(NC(=O)C(C(=O)[O-])c2ccc(O)cc2)C(=O)N2C(C(=O)[O-])=C(CSc3nnnn3C)CO[C@@H]21.[Na+].[Na+] (stereo partly drawn) [MOXALACTAM DISODIUM]	87.94	92.91
COc1c(N2C[C@@H]3CCCN[C@@H]3C2)c(F)cc2c(=O)c(C(=O)O)cn(C3CC3)c12.Cl [MOXIFLOXACIN HYDROCHLORIDE]	106	94.01
O=C(O)[C@@H](O)[C@H](O)[C@H](O)[C@@H](O)C(=O)O [MUCIC ACID]	109	98.98
COc1ccc2c(c1)O[C@@H]1COc3cc(OC)c(OC)cc3[C@@H]1C2=O [MUNDOSERONE]	118.1	110.7
COc1c(-c2coc3cc4c(cc3c2=O)CC(OC(C)=O)C(C)(C)O4)ccc2c1C=CC(C)(C)O2 (stereo not drawn) [MUNDULONE ACETATE]	71.78	87.47
COc1c(-c2coc3cc4c(cc3c2=O)CC(O)C(C)(C)O4)ccc2c1C=CC(C)(C)O2 (stereo not drawn) [MUNDULONE]	31.23	45.15
CC1=CC2C(CC1=O)C(C)=CCC2C(C)C (stereo not drawn) [MUUROLLADIE-3-ONE]	267.7	117.6
COc1c(C)c2c(c(O)c1C/C=C(\C)CCC(=O)O)C(=O)OC2 [MYCOPHENOLIC ACID]	106.8	100.1
N=C(N)NC(=O)c1nc(Cl)c(N2CCCCCC2)nc1N [N,N-HEXAMETHYLENEAMILORIDE]	122.5	162.9
Cl.FC(F)(F)c1cccc(N2CCNCC2)c1 [N- (3-TRIFLUOROMETHYLPHENYL)PIPERAZINE HYDROCHLORIDE (TFMPP)]	106.1	80.23
CC(=O)N[C@@H]1[C@@H](O)[C@H](O)[C@@H](CO)O[C@H]1O [N-ACETYLGLUCOSAMINE]	48.98	82.99

Compound	residual activity [1] [%]	residual activity [2] [%]
CC(=O)N1CCCC1C(=O)O (stereo not drawn) [N-ACETYLPROLINE]	88.69	109.9
O[C@@H]1C[C@H]2CCC[C@@H](C1)N2Cc1ccccc1 [N-BENZYLTROPAN-4-OL]	92.31	88.98
CSCCC(NC=O)C(=O)NC(C)C(=O)O (stereo not drawn) [N-FORMYLMETHIONYLALANINE]	100.9	108.8
O=C(NCO)c1cccnc1 [N-HYDROXYMETHYLNICOTINAMIDE]	121.9	92.24
CN[C@H](CC(=O)O)C(=O)O [N-METHYL-D-ASPARTIC ACID (NMDA)]	101.6	98.22
COc1ccc2cc(CCC(C)=O)ccc2c1 [NABUMETONE]	203	110.7
NC(=O)c1ccc[n+]([C@@H]2O[C@H](COP(=O)([O-])OP(=O)(O)OC[C@H]3O[C@@H](n4cnc5c(N)ncnc54)[C@H](O)[C@@H]3O)[C@@H](O)[C@H]2O)c1 [NADIDE]	99.44	115.4
CC(C)(C)NCC(O)COc1cccc2c1CC(O)C(O)C2 (stereo not drawn) [NADOLOL]	76.36	86.47
CCOc1ccc2ccccc2c1C(=O)N[C@@H]1C(=O)N2[C@@H]1SC(C)(C)[C@@H]2C(=O)[O-].O.[Na+] [NAFCILLIN SODIUM]	74.51	114.4
CCN(CC)CCOC(=O)C(Cc1cccc2ccccc12)CC1CCCO1.O=C(O)C(=O)O (stereo not drawn) [NAFRONYL OXALATE]	74.24	116.5
Cl.Oc1ccc2c3c1O[C@H]1[C@@H](O)CC[C@@]4(O)[C@@H](C2)N(CC2CCC2)CC[C@]314 [NALBUPHINE HYDROCHLORIDE]	86.64	96.59
COP(=O)(OC)OC(Br)C(Cl)(Cl)Br (stereo not drawn) [NALED]	82.68	110
CCn1cc(C(=O)O)c(=O)c2ccc(C)nc21 [NALIDIXIC ACID]	63.37	81.71
C=CCN1CC[C@]23c4c5ccc(O)c4O[C@H]2C(=O)CC[C@@]3(O)[C@H]1C5.Cl [NALOXONE HYDROCHLORIDE]	111.5	113.7
Cl.O=C1CC[C@@]2(O)[C@H]3Cc4ccc(O)c5c4[C@@]2(CCN3CC2CC2)[C@H]1O5 [NALTREXONE HYDROCHLORIDE]	71.98	86.99
Cl.c1ccc2c(CC3=NCCN3)cccc2c1 [NAPHAZOLINE HYDROCHLORIDE]	100.7	95.85
COc1ccc2cc([C@H](C)CO)ccc2c1 [NAPROXOL]	241.9	102.8
O=C1C[C@@H](c2ccc(O)cc2)Oc2cc(O)cc(O)c21 [NARINGENIN]	96.26	95.55
C[C@@H]1O[C@@H](O[C@H]2[C@H](Oc3cc(O)c4c(c3)O[C@H](c3ccc(O)cc3)CC4=O)O[C@H](CO)[C@@H](O)[C@@H]2O)[C@H](O)[C@H](O)[C@H]1O [NARINGIN]	100.1	137.8
CC(C)[C@H]1CC[C@H](C(=O)N[C@H](Cc2ccccc2)C(=O)O)CC1 [NATEGLINIDE]	99.81	70.33
CN1CCOC(c2ccccc2)c2ccccc2C1 (stereo not drawn) [NEFOPAM]	102.9	100.9
COc1ccc(CCC(=O)c2c(O)cc(O[C@@H]3O[C@H](CO)[C@@H](O)[C@H](O)[C@H]3O[C@@H]3O[C@@H](C)[C@H](O)[C@@H](O)[C@H]3O)cc2O)cc1O [NEOHESPERIDIN DIHYDROCHALCONE]	53.61	198.2
